# Columns and labels:
# [1] = system: microvessel sprouting from mouse aortic rings (C57BL/6); experiment: Mouse aortic ring assay (ex vivo); conditions: 100 μM, 6 days, mouse aortic ring in matrigel
# Experimental: (§1) Figure 2 TAX2 peptide impairs endothelial cell migration and inhibits angiogenesis in vitro and ex vivo A. HUVECs were treated with TAX2 (100 μM) or scrambled peptide (Ctrl, 100 μM). CD47 was immunoprecipitated from total protein lysates using anti-CD47 (clone B6H12) and non-specific IgGs were used as a negative control. Immunocomplexes were then submitted to SDS-PAGE and immunoblotted (IB) using specific TSP-1 and CD47 antibodies. Histogram represents the quantification of co-immunoprecipitated TSP-1 relative to immunoprecipitated CD47. Results are expressed as percentage compared to control (n = 3 separate experiments, t test). B. HUVECs (1 × 10^5 per well) were grown at confluence and then cell proliferation was inhibited by incubating with 10 μg/mL mitomycin C for 2 h. […] Graph represents the quantification of the wounded area. […] Hoechst-stained migrating cells attached on outside surface of the top chamber were photographed (20× objective) and counted. Results are expressed as percentage of migrated cells as compared to control. […] After 8 h incubation, HUVEC tube-like formation was observed on an inverted microscope (40×) and quantification of network total length was done using ImageJ software. […] Data are expressed as the mean ± SE from at least 3 independent experiments, each performed in triplicate. […] The transcriptional level of TSP-1 was assessed by RT-PCR and normalized to β-actin. […]
# [2] = system: TSP-1:CD47; experiment: Co-immunoprecipitation TSP-1:CD47 in HUVECs; assay type: cell-based, human; conditions: 100 μM vs scrambled peptide 100 μM, n = 3
# Experimental: as §1
sequence,measurement,setting,value
"CEVSQLLKGDAC (disulfide) [TAX2, CD47-derived cyclic disulfide dodecapeptide …]",microvessel sprouting from the aorta,[1],markedly inhibited
same,TSP-1 binding to CD47 (co-immunoprecipitation),[2],specifically prevents TSP-1 binding to CD47

# — publication PMC4627230, “Identification of TAX2 peptide as a new unpredicted anti-cancer agent” (Oncotarget, 2015)
